Source: patent US9738634B2, “Heterocyclic amide compound and herbicide” (SYNGENTA PARTICIPATIONS AG, priority 2013, dated 2017)

Legend:
Assay type in all cases: in vivo
[1] = tested on: barnyard grass; test: Test Example 1: weedkilling efficacy, preemergent weed treatment in the submerged state; A: barnyard grass; conditions: treatment dosage 252 g/ha
Summary of the method: (§1)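 Alluvial soil in Wagner pots flooded to 4 cm; barnyard grass, bulrush and oval-leafed pondweed seeds sown, then 2.5-leaf rice seedlings transplanted. Same day, emulsified compound diluted in water to set g/ha dosages and applied to water surface; greenhouse 25–30 °C, effect scored by criteria after 3 weeks.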

[2] = tested on: bulrush; test: Test Example 1: weedkilling efficacy, preemergent weed treatment in the submerged state; B: bulrush; conditions: treatment dosage 252 g/ha
Summary of the method: as §1

[3] = tested on: oval-leafed pondweed; test: Test Example 1: weedkilling efficacy, preemergent weed treatment in the submerged state; C: oval-leafed pondweed; conditions: treatment dosage 252 g/ha
Summary of the method: as §1

[4] = tested on: transplanted rice; test: Test Example 1: preemergent weed treatment in the submerged state, effect on crop; a: transplanted rice; conditions: treatment dosage 252 g/ha
Summary of the method: as §1

[5] = tested on: barnyard grass; test: Test Example 2: weedkilling efficacy, growth period weed treatment in the submerged state; A: barnyard grass; conditions: treatment dosage 252 g/ha
Summary of the method: (§2)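 First, alluvial soil in pots is flooded to 4 cm and mixed seed is sown. Next, plants grow in a greenhouse at 25 to 30° C until the 1-2 leaf stage. Then diluted emulsion is applied onto the water surface at the given g/ha rate, and injury is assessed after 3 weeks.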

[6] = tested on: bulrush; test: Test Example 2: weedkilling efficacy, growth period weed treatment in the submerged state; B: bulrush; conditions: treatment dosage 252 g/ha
Summary of the method: as §2

[7] = tested on: oval-leafed pondweed; test: Test Example 2: weedkilling efficacy, growth period weed treatment in the submerged state; C: oval-leafed pondweed; conditions: treatment dosage 252 g/ha
Summary of the method: as §2

[8] = tested on: crabgrass; test: Test Example 3: weedkilling efficacy through soil treatment; D: crabgrass; conditions: treatment dosage 315 g/ha
Summary of the method: (§3)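 Crop and weed responses were judged three weeks after a uniform surface spray of the water-diluted emulsion at the given g/ha rate. Seeds sat beneath about 1.5 cm of sterilized diluvial soil, and boxes stood in a greenhouse at 25 to 30° C.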

[9] = tested on: green foxtail; test: Test Example 3: weedkilling efficacy through soil treatment; E: green foxtail; conditions: treatment dosage 315 g/ha
Summary of the method: as §3

[10] = tested on: barnyard grass; test: Test Example 3: weedkilling efficacy through soil treatment; F: barnyard grass; conditions: treatment dosage 315 g/ha
Summary of the method: as §3

[11] = tested on: wild oat; test: Test Example 3: weedkilling efficacy through soil treatment; G: wild oat; conditions: treatment dosage 315 g/ha
Summary of the method: as §3

[12] = tested on: black-grass; test: Test Example 3: weedkilling efficacy through soil treatment; H: black-grass; conditions: treatment dosage 315 g/ha
Summary of the method: as §3

[13] = tested on: Italian ryegrass; test: Test Example 3: weedkilling efficacy through soil treatment; I: Italian ryegrass; conditions: treatment dosage 315 g/ha
Summary of the method: as §3

[14] = tested on: common wind-grass; test: Test Example 3: weedkilling efficacy through soil treatment; J: common wind-grass; conditions: treatment dosage 315 g/ha
Summary of the method: as §3

[15] = tested on: Indian mallow; test: Test Example 3: weedkilling efficacy through soil treatment; K: Indian mallow; conditions: treatment dosage 315 g/ha
Summary of the method: as §3

[16] = tested on: redroot pigweed; test: Test Example 3: weedkilling efficacy through soil treatment; L: redroot pigweed; conditions: treatment dosage 315 g/ha
Summary of the method: as §3

[17] = tested on: chickweed; test: Test Example 3: weedkilling efficacy through soil treatment; N: chickweed; conditions: treatment dosage 315 g/ha
Summary of the method: as §3

[18] = tested on: catchweed; test: Test Example 3: weedkilling efficacy through soil treatment; O: catchweed; conditions: treatment dosage 315 g/ha
Summary of the method: as §3

[19] = tested on: birds-eye speedwell; test: Test Example 3: weedkilling efficacy through soil treatment; p: birds-eye speedwell; conditions: treatment dosage 315 g/ha
Summary of the method: as §3

[20] = tested on: directly sown rice; test: Test Example 3: soil treatment, effect on crop; b: directly sown rice; conditions: treatment dosage 315 g/ha
Summary of the method: as §3

[21] = tested on: corn; test: Test Example 3: soil treatment, effect on crop; c: corn; conditions: treatment dosage 315 g/ha
Summary of the method: as §3

[22] = tested on: soybean; test: Test Example 3: soil treatment, effect on crop; d: soybean; conditions: treatment dosage 315 g/ha
Summary of the method: as §3

[23] = tested on: wheat; test: Test Example 3: soil treatment, effect on crop; e: wheat; conditions: treatment dosage 315 g/ha
Summary of the method: as §3

[24] = tested on: beet; test: Test Example 3: soil treatment, effect on crop; f: beet; conditions: treatment dosage 315 g/ha
Summary of the method: as §3

[25] = tested on: rapeseed; test: Test Example 3: soil treatment, effect on crop; g: rapeseed; conditions: treatment dosage 315 g/ha
Summary of the method: as §3

[26] = tested on: crabgrass; test: Test Example 4: weedkilling efficacy by foliar treatment; D: crabgrass; conditions: treatment dosage 315 g/ha
Summary of the method: (§4)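 Seeds are spot-sown into sterilized diluvial soil and covered with about 1.5 cm of soil. After 14 days' greenhouse growth at 25 to 30° C, plants are sprayed on stems and leaves with diluted emulsion at the stated g/ha rate, then scored at 3 weeks.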

[27] = tested on: green foxtail; test: Test Example 4: weedkilling efficacy by foliar treatment; E: green foxtail; conditions: treatment dosage 315 g/ha
Summary of the method: as §4

[28] = tested on: barnyard grass; test: Test Example 4: weedkilling efficacy by foliar treatment; F: barnyard grass; conditions: treatment dosage 315 g/ha
Summary of the method: as §4

[29] = tested on: wild oat; test: Test Example 4: weedkilling efficacy by foliar treatment; G: wild oat; conditions: treatment dosage 315 g/ha
Summary of the method: as §4

[30] = tested on: black-grass; test: Test Example 4: weedkilling efficacy by foliar treatment; H: black-grass; conditions: treatment dosage 315 g/ha
Summary of the method: as §4

[31] = tested on: Italian ryegrass; test: Test Example 4: weedkilling efficacy by foliar treatment; I: Italian ryegrass; conditions: treatment dosage 315 g/ha
Summary of the method: as §4

[32] = tested on: common wind-grass; test: Test Example 4: weedkilling efficacy by foliar treatment; J: common wind-grass; conditions: treatment dosage 315 g/ha
Summary of the method: as §4

[33] = tested on: Indian mallow; test: Test Example 4: weedkilling efficacy by foliar treatment; K: Indian mallow; conditions: treatment dosage 315 g/ha
Summary of the method: as §4

[34] = tested on: redroot pigweed; test: Test Example 4: weedkilling efficacy by foliar treatment; L: redroot pigweed; conditions: treatment dosage 315 g/ha
Summary of the method: as §4

[35] = tested on: chickweed; test: Test Example 4: weedkilling efficacy by foliar treatment; N: chickweed; conditions: treatment dosage 315 g/ha
Summary of the method: as §4

[36] = tested on: catchweed; test: Test Example 4: weedkilling efficacy by foliar treatment; O: catchweed; conditions: treatment dosage 315 g/ha
Summary of the method: as §4

[37] = tested on: birds-eye speedwell; test: Test Example 4: weedkilling efficacy by foliar treatment; p: birds-eye speedwell; conditions: treatment dosage 315 g/ha
Summary of the method: as §4

[38] = tested on: directly sown rice; test: Test Example 4: foliar treatment, effect on crop; b: directly sown rice; conditions: treatment dosage 315 g/ha
Summary of the method: as §4

[39] = tested on: corn; test: Test Example 4: foliar treatment, effect on crop; c: corn; conditions: treatment dosage 315 g/ha
Summary of the method: as §4

[40] = tested on: soybean; test: Test Example 4: foliar treatment, effect on crop; d: soybean; conditions: treatment dosage 315 g/ha
Summary of the method: as §4

[41] = tested on: wheat; test: Test Example 4: foliar treatment, effect on crop; e: wheat; conditions: treatment dosage 315 g/ha
Summary of the method: as §4

[42] = tested on: beet; test: Test Example 4: foliar treatment, effect on crop; f: beet; conditions: treatment dosage 315 g/ha
Summary of the method: as §4

[43] = tested on: rapeseed; test: Test Example 4: foliar treatment, effect on crop; g: rapeseed; conditions: treatment dosage 315 g/ha
Summary of the method: as §4

CC1=C(c2ccccc2)C(=O)N(C(C)(C)C(=O)Nc2cc(C)cnc2Cl)CO1 [B-3-04]
A (barnyard grass) weedkilling efficacy grade [1]: 5 (weed kill ratio 90% or more, (practically complete withering))
B (bulrush) weedkilling efficacy grade [2]: 5 (weed kill ratio 90% or more, (practically complete withering))
C (oval-leafed pondweed) weedkilling efficacy grade [3]: 4 (weed kill ratio 70% or more, less than 90%)
a (transplanted rice) effect on crop grade [4]: 0 (weed kill ratio 5% or less (practically no effect))
A (barnyard grass) weedkilling efficacy grade [5]: 4 (weed kill ratio 70% or more, less than 90%)
B (bulrush) weedkilling efficacy grade [6]: 4 (weed kill ratio 70% or more, less than 90%)
C (oval-leafed pondweed) weedkilling efficacy grade [7]: 3 (weed kill ratio 40% or more, less than 70%)
D (crabgrass) weedkilling efficacy grade [8]: 5 (weed kill ratio 90% or more, (practically complete withering))
E (green foxtail) weedkilling efficacy grade [9]: 5 (weed kill ratio 90% or more, (practically complete withering))
F (barnyard grass) weedkilling efficacy grade [10]: 5 (weed kill ratio 90% or more, (practically complete withering))
G (wild oat) weedkilling efficacy grade [11]: 3 (weed kill ratio 40% or more, less than 70%)
H (black-grass) weedkilling efficacy grade [12]: 4 (weed kill ratio 70% or more, less than 90%)
I (Italian ryegrass) weedkilling efficacy grade [13]: 5 (weed kill ratio 90% or more, (practically complete withering))
J (common wind-grass) weedkilling efficacy grade [14]: 5 (weed kill ratio 90% or more, (practically complete withering))
K (Indian mallow) weedkilling efficacy grade [15]: 0 (weed kill ratio 5% or less (practically no effect))
L (redroot pigweed) weedkilling efficacy grade [16]: 0 (weed kill ratio 5% or less (practically no effect))
N (chickweed) weedkilling efficacy grade [17]: 3 (weed kill ratio 40% or more, less than 70%)
O (catchweed) weedkilling efficacy grade [18]: 2 (weed kill ratio 20% or more, less than 40%)
P (birds-eye speedwell) weedkilling efficacy grade [19]: 4 (weed kill ratio 70% or more, less than 90%)
b (directly sown rice) effect on crop grade [20]: 1 (weed kill ratio 5% or more, less than 20%)
c (corn) effect on crop grade [21]: 0 (weed kill ratio 5% or less (practically no effect))
d (soybean) effect on crop grade [22]: 0 (weed kill ratio 5% or less (practically no effect))
e (wheat) effect on crop grade [23]: 0 (weed kill ratio 5% or less (practically no effect))
f (beet) effect on crop grade [24]: 1 (weed kill ratio 5% or more, less than 20%)
g (rapeseed) effect on crop grade [25]: 0 (weed kill ratio 5% or less (practically no effect))
D (crabgrass) weedkilling efficacy grade [26]: 3 (weed kill ratio 40% or more, less than 70%)
E (green foxtail) weedkilling efficacy grade [27]: 4 (weed kill ratio 70% or more, less than 90%)
F (barnyard grass) weedkilling efficacy grade [28]: 3 (weed kill ratio 40% or more, less than 70%)
G (wild oat) weedkilling efficacy grade [29]: 3 (weed kill ratio 40% or more, less than 70%)
H (black-grass) weedkilling efficacy grade [30]: 3 (weed kill ratio 40% or more, less than 70%)
I (Italian ryegrass) weedkilling efficacy grade [31]: 3 (weed kill ratio 40% or more, less than 70%)
J (common wind-grass) weedkilling efficacy grade [32]: 4 (weed kill ratio 70% or more, less than 90%)
K (Indian mallow) weedkilling efficacy grade [33]: 2 (weed kill ratio 20% or more, less than 40%)
L (redroot pigweed) weedkilling efficacy grade [34]: 0 (weed kill ratio 5% or less (practically no effect))
N (chickweed) weedkilling efficacy grade [35]: 3 (weed kill ratio 40% or more, less than 70%)
O (catchweed) weedkilling efficacy grade [36]: 2 (weed kill ratio 20% or more, less than 40%)
P (birds-eye speedwell) weedkilling efficacy grade [37]: 3 (weed kill ratio 40% or more, less than 70%)
b (directly sown rice) effect on crop grade [38]: 0 (weed kill ratio 5% or less (practically no effect))
c (corn) effect on crop grade [39]: 0 (weed kill ratio 5% or less (practically no effect))
d (soybean) effect on crop grade [40]: 0 (weed kill ratio 5% or less (practically no effect))
e (wheat) effect on crop grade [41]: 0 (weed kill ratio 5% or less (practically no effect))
f (beet) effect on crop grade [42]: 2 (weed kill ratio 20% or more, less than 40%)
g (rapeseed) effect on crop grade [43]: 1 (weed kill ratio 5% or more, less than 20%)
